US20080274892A1, “Novel Haloalkylsulfonanilide Derivative, Herbicide, and Method of Use Thereof” (priority 2005, published 2008)
Blank lines part the entries; values can stand above or below the compound they belong to.

Legend:
[1] = system: paddy rice plant (cultivar: Nihonbare); experiment: Test Example 3: phytotoxicity test for transplanted paddy rice plant; assay type: in vivo; conditions: transplanted rice, 21 days after treatment
How it was run: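 Clay loam soil was placed in a 75 cm^2 plastic pot and flooded to a water depth of 5 cm. Two Nihonbare paddy rice plants at the two-leaf stage were transplanted 1 cm deep and grown in a hot house. After treatment, pots stayed in the hot house for 21 days, and phytotoxicity was then graded against an untreated control.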

[2] = system: bulrush; experiment: Test Example 2: herbicidal efficacy on rice paddy weeds post-emergence; assay type: in vivo, Scirpus juncoides; conditions: post-emergence, one leaf stage, 21 days after treatment
[3] = system: barnyard glass; experiment: as above; assay type: in vivo, Echinochloa crus-galli; conditions: post-emergence, one leaf stage, 21 days after treatment
How it was run: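 Efficacy on paddy weeds was scored on a 0 to 4 growth-inhibition scale: 4 for 90%-100%, 3 for 70%-89%, 2 for 40%-69%, 1 for 1%-39% and 0 for 0%. Barnyard glass was grown in clay loam in 75 cm^2 pots under 5 cm of water in a hot house. It was compared with untreated pots 21 days after treatment.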

[4] = system: transplanted paddy rice plant and Bulrush; experiment: Test Example 5: selectivity between transplanted paddy rice plant and weeds; assay type: in vivo; conditions: (highest dosage with no phytotoxicity to paddy rice)/(lowest dosage with effective level 4 on Bulrush); rice 3000-100 g/ha, Bulrush 300-10 g/ha; 21 days
How it was run: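 Scoring ran 21 days after treatment in a hothouse on a 0–4 scale (4 = 90–100%, 3 = 70–89%, 2 = 40–69%, 1 = 1–39%, 0 = none) relative to untreated plants. Post-emergence bulrush received 10, 30, 100 and 300 g/ha active ingredient. Transplanted rice received 100, 300, 1000 and 3000 g/ha to assess crop injury.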

[5] = system: false pimpernel; experiment: Test Example 1: herbicidal efficacy on rice paddy weeds pre-emergence; assay type: in vivo, Lindernia pyxidaria; conditions: 21 days
[6] = system: bulrush; experiment: Test Example 1: herbicidal efficacy on rice paddy weeds pre-emergence; assay type: in vivo, Scirpus juncoides; conditions: 21 days
[7] = system: bulrush; experiment: Test Example 4: low dosage test for rice paddy weeds; assay type: in vivo, Scirpus juncoides; conditions: 300 g/ha as an active ingredient; plants treated at the one leaf stage; 21 days after treatment; vs untreated control
How it was run: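 Compound applied as a formulation at 300 g/ha to one-leaf bulrush grown in flooded clay loam (5 cm water) in a hot house. After 21 days, growth inhibition versus untreated plants rated on a 0–4 scale, with 4 meaning 90–100%.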

[8] = system: false pimpernel; experiment: Test Example 2: herbicidal efficacy on rice paddy weeds post-emergence; assay type: in vivo, Lindernia pyxidaria; conditions: post-emergence, one leaf stage, 21 days after treatment
[9] = dosage 1000 g/ha, treated 5 days after transplantation

melting point: 81.4 to 83.6 °C
Structure (SMILES): CCC1COC(=O)N1Cc1ccccc1NS(=O)(=O)C(F)(F)F (stereo not shown) [Compound No. 1-5, 4-ethyl-3-[2-(trifluoromethanesulfonylamino)benzyl]-2-oxazolidinone]
Phytotoxicity to paddy rice [1, 9]: 2 (40%-69% of herbicidal efficacy or phytotoxicity)
Bulrush post (herbicidal efficacy grade) ([2]; dosage 1000 g/ha): 4 (90%-100% of herbicidal efficacy or phytotoxicity)
Burnyard grass post (herbicidal efficacy grade) ([3]; dosage 1000 g/ha): 4 (90%-100% of herbicidal efficacy or phytotoxicity)
Selective Index [4]: ≧10
False pimpernel pre (herbicidal efficacy grade) ([5]; dosage 1000 g/ha): 4 (90%-100% of herbicidal efficacy or phytotoxicity)
Bulrush pre (herbicidal efficacy grade) ([6]; dosage 1000 g/ha): 4 (90%-100% of herbicidal efficacy or phytotoxicity)
Herbicide effect to Bulrush [7]: 4 (90%-100% of herbicidal efficacy or phytotoxicity)
False pimpernel post (herbicidal efficacy grade) ([8]; dosage 1000 g/ha): 4 (90%-100% of herbicidal efficacy or phytotoxicity)

Structure (SMILES): CC(C)COC(=O)N(c1ccccc1CN1CC(C)OC1=O)S(=O)(=O)C(F)(F)F (stereo not shown) [Compound No. 1-18]
Phytotoxicity to paddy rice [1, 9]: 0 (0% of herbicidal efficacy or phytotoxicity)
Bulrush post (herbicidal efficacy grade) ([2]; dosage 1000 g/ha): 4 (90%-100% of herbicidal efficacy or phytotoxicity)
Burnyard grass post (herbicidal efficacy grade) ([3]; dosage 1000 g/ha): 4 (90%-100% of herbicidal efficacy or phytotoxicity)
Selective Index [4]: 33
False pimpernel pre (herbicidal efficacy grade) ([5]; dosage 1000 g/ha): 4 (90%-100% of herbicidal efficacy or phytotoxicity)
Bulrush pre (herbicidal efficacy grade) ([6]; dosage 1000 g/ha): 4 (90%-100% of herbicidal efficacy or phytotoxicity)
Herbicide effect to Bulrush [7]: 4 (90%-100% of herbicidal efficacy or phytotoxicity)
False pimpernel post (herbicidal efficacy grade) ([8]; dosage 1000 g/ha): 4 (90%-100% of herbicidal efficacy or phytotoxicity)

Structure (SMILES): CC(C)COC(=O)N(c1ccccc1CN1CC(C)OC1=S)S(=O)(=O)C(F)(F)F (stereo not shown) [Compound No. 1-22, 5-methyl-3-{2-[N-(isobutoxycarbonyl)-N-(trifluoromethanesulfonyl)amino]benzyl}-2-oxazolidinethione]
Phytotoxicity to paddy rice [1, 9]: 0 (0% of herbicidal efficacy or phytotoxicity)
Bulrush post (herbicidal efficacy grade) ([2]; dosage 1000 g/ha): 4 (90%-100% of herbicidal efficacy or phytotoxicity)
Burnyard grass post (herbicidal efficacy grade) ([3]; dosage 1000 g/ha): 4 (90%-100% of herbicidal efficacy or phytotoxicity)
Selective Index [4]: 33
False pimpernel pre (herbicidal efficacy grade) ([5]; dosage 1000 g/ha): 4 (90%-100% of herbicidal efficacy or phytotoxicity)
Bulrush pre (herbicidal efficacy grade) ([6]; dosage 1000 g/ha): 4 (90%-100% of herbicidal efficacy or phytotoxicity)
Herbicide effect to Bulrush [7]: 4 (90%-100% of herbicidal efficacy or phytotoxicity)
False pimpernel post (herbicidal efficacy grade) ([8]; dosage 1000 g/ha): 4 (90%-100% of herbicidal efficacy or phytotoxicity)

Structure (SMILES): CCC1CN(Cc2ccccc2NS(=O)(=O)C(F)(F)F)C(=O)O1 (stereo not shown) [Compound No. 1-23, 5-ethyl-3-[2-(trifluoromethanesulfonylamino)benzyl]-2-oxazolidinone]
Phytotoxicity to paddy rice [1, 9]: 1 (1%-39% of herbicidal efficacy or phytotoxicity)
Bulrush post (herbicidal efficacy grade) ([2]; dosage 1000 g/ha): 4 (90%-100% of herbicidal efficacy or phytotoxicity)
Burnyard grass post (herbicidal efficacy grade) ([3]; dosage 1000 g/ha): 4 (90%-100% of herbicidal efficacy or phytotoxicity)
Selective Index [4]: 10
False pimpernel pre (herbicidal efficacy grade) ([5]; dosage 1000 g/ha): 4 (90%-100% of herbicidal efficacy or phytotoxicity)
Bulrush pre (herbicidal efficacy grade) ([6]; dosage 1000 g/ha): 4 (90%-100% of herbicidal efficacy or phytotoxicity)
Herbicide effect to Bulrush [7]: 4 (90%-100% of herbicidal efficacy or phytotoxicity)
False pimpernel post (herbicidal efficacy grade) ([8]; dosage 1000 g/ha): 4 (90%-100% of herbicidal efficacy or phytotoxicity)

Structure (SMILES): CC(C)COC(=O)N(c1ccccc1CN1CC(C)(C)SC1=O)S(=O)(=O)C(F)(F)F [Compound No. 1-185, 3-{2-[N-(isobutoxycarbonyl)-N-(trifluoromethanesulfonyl)amino]benzyl}-5,5-dimethylthiazolidin-2-one]
Phytotoxicity to paddy rice [1, 9]: 0 (0% of herbicidal efficacy or phytotoxicity)
Bulrush post (herbicidal efficacy grade) ([2]; dosage 1000 g/ha): 4 (90%-100% of herbicidal efficacy or phytotoxicity)
Burnyard grass post (herbicidal efficacy grade) ([3]; dosage 1000 g/ha): 4 (90%-100% of herbicidal efficacy or phytotoxicity)
Selective Index [4]: 33.3
False pimpernel pre (herbicidal efficacy grade) ([5]; dosage 1000 g/ha): 4 (90%-100% of herbicidal efficacy or phytotoxicity)
Bulrush pre (herbicidal efficacy grade) ([6]; dosage 1000 g/ha): 4 (90%-100% of herbicidal efficacy or phytotoxicity)
Herbicide effect to Bulrush [7]: 4 (90%-100% of herbicidal efficacy or phytotoxicity)
False pimpernel post (herbicidal efficacy grade) ([8]; dosage 1000 g/ha): 4 (90%-100% of herbicidal efficacy or phytotoxicity)

Structure (SMILES): CC1(C)OC(=O)N(Cc2ccccc2NS(=O)(=O)C(F)(F)F)C1=O [Compound No. 1-187, 5,5-dimethyl-3-[2-(trifluoromethanesulfonylamino)benzyl]oxazolidine-2,4-dione]
Phytotoxicity to paddy rice [1, 9]: 3 (70%-89% of herbicidal efficacy or phytotoxicity)
Bulrush post (herbicidal efficacy grade) ([2]; dosage 1000 g/ha): 4 (90%-100% of herbicidal efficacy or phytotoxicity)
Burnyard grass post (herbicidal efficacy grade) ([3]; dosage 1000 g/ha): 4 (90%-100% of herbicidal efficacy or phytotoxicity)
Selective Index [4]: ≧10
False pimpernel pre (herbicidal efficacy grade) ([5]; dosage 1000 g/ha): 4 (90%-100% of herbicidal efficacy or phytotoxicity)
Bulrush pre (herbicidal efficacy grade) ([6]; dosage 1000 g/ha): 4 (90%-100% of herbicidal efficacy or phytotoxicity)
Herbicide effect to Bulrush [7]: 4 (90%-100% of herbicidal efficacy or phytotoxicity)
False pimpernel post (herbicidal efficacy grade) ([8]; dosage 1000 g/ha): 4 (90%-100% of herbicidal efficacy or phytotoxicity)

Structure (SMILES): CC(C)COC(=O)N(c1ccccc1CN1C(=O)OC(C)(C)C1=O)S(=O)(=O)C(F)(F)F [Compound No. 1-189, 3-{2-[N-(isobutoxycarbonyl)-N-(trifluoromethanesulfonyl)amino]benzyl}-5,5-dimethyloxazolidine-2,4-dione]
Phytotoxicity to paddy rice [1, 9]: 1 (1%-39% of herbicidal efficacy or phytotoxicity)
Bulrush post (herbicidal efficacy grade) ([2]; dosage 1000 g/ha): 4 (90%-100% of herbicidal efficacy or phytotoxicity)
Burnyard grass post (herbicidal efficacy grade) ([3]; dosage 1000 g/ha): 4 (90%-100% of herbicidal efficacy or phytotoxicity)
Selective Index [4]: ≧10
False pimpernel pre (herbicidal efficacy grade) ([5]; dosage 1000 g/ha): 4 (90%-100% of herbicidal efficacy or phytotoxicity)
Bulrush pre (herbicidal efficacy grade) ([6]; dosage 1000 g/ha): 4 (90%-100% of herbicidal efficacy or phytotoxicity)
Herbicide effect to Bulrush [7]: 4 (90%-100% of herbicidal efficacy or phytotoxicity)
False pimpernel post (herbicidal efficacy grade) ([8]; dosage 1000 g/ha): 4 (90%-100% of herbicidal efficacy or phytotoxicity)

melting point: 88 to 92 °C
Structure (SMILES): CC1(C)OC(=O)N(Cc2ccccc2NS(=O)(=O)C(F)(F)F)C1O (stereo not shown) [Compound No. 1-194, 4-hydroxy-5,5-dimethyl-3-[2-(trifluoromethanesulfonylamino)benzyl]oxazolidin-2-one]

Structure (SMILES): COC1N(Cc2ccccc2N(C(=O)OCC(C)C)S(=O)(=O)C(F)(F)F)C(=O)OC1(C)C (stereo not shown) [Compound No. 1-197, 3-{2-[N-(isobutoxycarbonyl)-N-(trifluoromethanesulfonyl)-amino]benzyl}-4-methoxy-5,5-dimethyloxazolidin-2-one]
Phytotoxicity to paddy rice ([1]; dosage 300 g/ha): 2 (40%-69% of herbicidal efficacy or phytotoxicity)
Bulrush post (herbicidal efficacy grade) ([2]; dosage 300 g/ha): 4 (90%-100% of herbicidal efficacy or phytotoxicity)
Burnyard grass post (herbicidal efficacy grade) ([3]; dosage 300 g/ha): 4 (90%-100% of herbicidal efficacy or phytotoxicity)
Selective Index [4]: 10
False pimpernel pre (herbicidal efficacy grade) ([5]; dosage 300 g/ha): 3 (70%-89% of herbicidal efficacy or phytotoxicity)
Bulrush pre (herbicidal efficacy grade) ([6]; dosage 300 g/ha): 4 (90%-100% of herbicidal efficacy or phytotoxicity)
Herbicide effect to Bulrush [7]: 4 (90%-100% of herbicidal efficacy or phytotoxicity)
False pimpernel post (herbicidal efficacy grade) ([8]; dosage 300 g/ha): 1 (1%-39% of herbicidal efficacy or phytotoxicity)

melting point: 120.2 to 121.2 °C
Structure (SMILES): Cc1cn(Cc2ccccc2NS(=O)(=O)C(F)(F)F)c(=O)o1 [Compound No. 1-207, 5-methyl-3-[2-(trifluoromethanesulfonylamino)benzyl]-4-oxazolin-2-one]
Phytotoxicity to paddy rice ([1]; dosage 300 g/ha): 1 (1%-39% of herbicidal efficacy or phytotoxicity)
Bulrush post (herbicidal efficacy grade) ([2]; dosage 300 g/ha): 4 (90%-100% of herbicidal efficacy or phytotoxicity)
Burnyard grass post (herbicidal efficacy grade) ([3]; dosage 300 g/ha): 0 (0% of herbicidal efficacy or phytotoxicity)
False pimpernel pre (herbicidal efficacy grade) ([5]; dosage 300 g/ha): 4 (90%-100% of herbicidal efficacy or phytotoxicity)
Bulrush pre (herbicidal efficacy grade) ([6]; dosage 300 g/ha): 4 (90%-100% of herbicidal efficacy or phytotoxicity)
False pimpernel post (herbicidal efficacy grade) ([8]; dosage 300 g/ha): 1 (1%-39% of herbicidal efficacy or phytotoxicity)

Structure (SMILES): Cc1cn(Cc2ccccc2N(C(=O)OCC(C)C)S(=O)(=O)C(F)(F)F)c(=O)o1 [Compound No. 1-208, 3-{2-[N-(isobutoxycarbonyl)-N-(trifluoromethanesulfonyl)amino]benzyl}-5-methyl-4-oxazolin-2-one]
Phytotoxicity to paddy rice ([1]; dosage 300 g/ha): 0 (0% of herbicidal efficacy or phytotoxicity)
Bulrush post (herbicidal efficacy grade) ([2]; dosage 300 g/ha): 4 (90%-100% of herbicidal efficacy or phytotoxicity)
False pimpernel pre (herbicidal efficacy grade) ([5]; dosage 300 g/ha): 4 (90%-100% of herbicidal efficacy or phytotoxicity)
melting point: 60.3 to 68.6 °C
Bulrush pre (herbicidal efficacy grade) ([6]; dosage 300 g/ha): 4 (90%-100% of herbicidal efficacy or phytotoxicity)
False pimpernel post (herbicidal efficacy grade) ([8]; dosage 300 g/ha): 1 (1%-39% of herbicidal efficacy or phytotoxicity)
